The target of assay [1] is human Gal-1 (hGal-1) (Homo sapiens, UniProt P09382). Description: Competitive binding assay: binding of biotinylated hGal-1 to microplate-adsorbed asialofetuin (ASF). The settings on record: Activities on hGal-1; mean values of several measurements. An outline of the steps:
(§1)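 For hGal-1, a variant with all six cysteines replaced by serines is preferred. Either galectin, biotinylated at 300-1000 ng/mL, competes with compound for microplate-bound ASF over 3 h at 4° C; peroxidase/ABTS detection gives IC50, averaged.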

The target in assay [2] is human Gal-3 (hGal-3) (Homo sapiens (Human), UniProt P17931). Description: Competitive binding assay: binding of biotinylated hGal-3 to microplate-adsorbed asialofetuin (ASF). To be noted: Activity on hGal-3; mean values of several measurements. An outline of the steps:
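Spectrophotometric readout (streptavidin-peroxidase, ABTS) of biotinylated galectin retained on ASF-coated wells. Biotinylated hGal-1 or hGal-3, 300-1000 ng/mL, co-incubated with test compound 3 h at 4° C, then washed. Mean IC50 from repeat runs.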

In assay [3] the target is human Gal-1 (hGal-1). Description: Competitive binding assay: binding of biotinylated hGal-1 to microplate-adsorbed asialofetuin (ASF). The settings on record: Activities on hGal-1; mean values of several measurements. An outline of the steps: as §1

The values below come from patent US12319672B2, “Alpha-D-galactopyranoside derivatives” (Idorsia Pharmaceuticals Ltd, priority 2019, dated 2025).

Sequence of human Gal-3 (hGal-3) (P17931 whole entry): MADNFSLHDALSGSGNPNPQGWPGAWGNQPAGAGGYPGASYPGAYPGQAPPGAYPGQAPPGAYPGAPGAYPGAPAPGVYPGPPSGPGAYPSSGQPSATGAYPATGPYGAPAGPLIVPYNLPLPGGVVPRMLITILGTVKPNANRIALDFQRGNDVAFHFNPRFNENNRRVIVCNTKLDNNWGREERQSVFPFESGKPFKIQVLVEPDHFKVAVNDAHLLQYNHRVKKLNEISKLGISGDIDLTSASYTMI
Sequence of human Gal-1 (hGal-1) (P09382 2-135 limits assumed): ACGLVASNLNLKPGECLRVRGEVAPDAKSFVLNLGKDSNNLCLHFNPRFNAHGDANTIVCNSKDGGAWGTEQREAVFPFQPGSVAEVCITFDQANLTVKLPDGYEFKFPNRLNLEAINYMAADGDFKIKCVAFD
Sequence of human Gal-1 (hGal-1) (Homo sapiens, UniProt P09382) (P09382 2-135 limits assumed): as above

Broadly, the IC50 is the concentration at which inhibition is half-maximal. For the molecule `CC(C)(C)OC(=O)N1CCC(c2cc(C[C@H]3O[C@H](CO)[C@H](O)[C@H](n4cc(-c5cc(F)c(F)c(F)c5)nn4)[C@H]3OCC(F)F)no2)CC1` [Example 2.25, tert-butyl 4-(3-(((2R,3R,4S,5R,6R)-3-(2,2-difluoroethoxy)-5-hydroxy-6-(hydroxymethyl)-4-(4-(3,4,5-trifluorophenyl)-1H-1,2,3-triazol-1-yl)tetrahydro-2H-pyran-2-yl)methyl)issoxazole-5-yl)piperidine-1-carboxylate], the IC50 is 1280 nM in assay [1] and 170 nM in assay [2].

Take `CO[C@@H]1[C@@H](n2cc(-c3cc(F)c(F)c(F)c3)nn2)[C@@H](O)[C@@H](CO)O[C@@H]1CN1CC(=O)N(C2CCOCC2)C1` [Example 6.10, 1-(((2R,3R,4S,5R,6R)-5-hydroxy-6-(hydroxymethyl)-3-methoxy-4-(4-(3,4,5-trifluorophenyl)-1H-1,2,3-triazol-1-yl)tetrahydro-2H-pyran-2-yl)methyl)-3-(tetrahydro-2H-pyran-4-yl)imidazolidin-4-one]: the IC50 in assay [3] was determined as 890 nM; in assay [2], 37 nM.

As for `CCOC(=O)N1CCC(N2CN(C[C@H]3O[C@H](CO)[C@H](O)[C@H](n4cc(-c5cc(F)c(F)c(F)c5)nn4)[C@H]3OC)CC2=O)CC1` [Example 6.11, ethyl 4-(3-(((2R,3R,4S,5R,6R)-5-hydroxy-6-(hydroxymethyl)-3-methoxy-4-(4-(3,4,5-trifluorophenyl)-1H-1,2,3-triazol-1-yl)tetrahydro-2H-pyran-2-yl)methyl)-5-oxoimidazolidin-1-yl)piperidine-1-carboxylate], the IC50 amounted to 92 nM in assay [3] and 26 nM in assay [2].

For the molecule “(2R,3R,4S,5R,6R)-4-(4-(2,3-difluoro-4-methylphenyl)-1H-1,2,3-triazol-1-yl)-6-((3-(1-hydroxycyclobutyl)isoxazol-5-yl)methyl)-2-(hydroxymethyl)-5-methoxytetrahydro-2H-pyran-3-ol [Example 2.57]”, the IC50 in assay [3] worked out at 1450 nM; in assay [2] it was 81 nM.

Take “(2R,3R,4S,5R,6R)-4-(4-(4-chloro-2,3-difluorophenyl)-1H-1,2,3-triazol-1-yl)-6-((3-(1-hydroxycyclobutyl)isoxazol-5-yl)methyl)-2-(hydroxymethyl)-5-methoxytetrahydro-2H-pyran-3-ol [Example 2.58]”: the IC50 in assay [3] turned out to be 1460 nM; in assay [2], 60 nM.
